Source: ChEMBL document CHEMBL1128937, “Coumarin-based prodrugs 2. Synthesis and bioreversibility studies of an esterase-sensitive cyclic prodrug of dadle, an opioid peptide” (Bioorg Med Chem Lett, 1996)

System: esterase
Assay: Half-life time was determined for esterase-catalyzed hydrolysis of the phenol ester bond in porcine liver esterase
Assay type: ADME, Sus scrofa
Settings: pig

## CC(C)C[C@H]1NC(=O)Oc2ccccc2/C=C\C(=O)NC(=O)[C@H](Cc2ccc(O)cc2)NC(=O)[C@@H](C)NC(=O)CNC(=O)[C@H](Cc2ccccc2)NC1=O
  half-life: 12.7 h
